Assay results taken from patent US20090068290A1, “BIFEPRUNOX DOSES FOR TREATING SCHIZOPHRENIA” (priority 2006, published 2009).

Key:
[1] = system: adult subjects with schizophrenia; assay: CGI Severity of Illness score, Clinical Study One; type: in vivo, human; set-up: Change from Baseline in CGI Severity of Illness Score, Median: scale not given here; details: for Change from Baseline in CGI Severity of Illness Score, Mean (S.D.) / Change from Baseline in CGI Severity of Illness Score, Median / Change from Baseline in CGI Severity of Illness Score, Trt Effect (bifeprunox—placebo): ITT population
Method: There were five treatment groups in this study. […] Study medication was administered once daily. After Baseline measurements were performed, the titration phase was begun. Bifeprunox treated subjects were titrated up to 5 mg, 10 mg or 20 mg according to a standardized titration schedule (Day 1: 0.125 mg, Day 2: 0.25 mg, Day 3: 0.5 mg, Day 4: 1.0 mg, Day 5: 2.0 mg, Day 6: 5.0 mg, Day 7: 10.0 mg, Day 8: 20 mg). When the assigned dose was reached, subjects were maintained at that dose for the remainder of the six-week treatment period.
The change in the Positive and Negative Symptom Scale (PANSS) total score, from baseline to endpoint, was the primary outcome measure. Secondary efficacy measures included: PANSS positive, PANSS negative, PANSS general psychopathology (GPP) score, PANSS-derived Brief Psychiatric Rating Scale (BPRS) score, Clinical Global Impressions-Severity of Illness (CGI-S), CGI-Improvement (CGI-I) scores, and responder rates. Safety and tolerability evaluations included extrapyramidal symptoms (EPS), weight gain, lipid profile, and serum prolactin.

[2] = system: adult subjects with schizophrenia; assay: CGI Severity of Illness score, Clinical Study Two; type: in vivo, human; details: for Change from Baseline in CGI Severity of Illness Score, Mean (SD) / Change from Baseline in CGI Severity of Illness Score, Median / Change from Baseline in CGI Severity of Illness Score, Trt Effect (bifeprunox—placebo) / mean change (SD) from Baseline to Endpoint in CGI severity of illness score: LOCF; for Change from Baseline in CGI Severity of Illness Score, Mean (SD) / Change from Baseline in CGI Severity of Illness Score, Median / Change from Baseline in CGI Severity of Illness Score, Trt Effect (bifeprunox—placebo): ITT population; for CGI severity of illness score, treatment effect (bifeprunox—placebo): Endpoint LOCF; for mean change (SD) from Baseline to Endpoint in CGI severity of illness score: ITT
Method: Rating scale assessments were performed weekly, except for week 5, to measure the change from baseline to endpoint of the PANSS total score. Other assessments included: PANSS positive symptom subscale score, PANSS negative symptom subscale score, PANSS general pschopathology subscale score, BPRS total score, BPRS psychosis score, the CGI-S score, the CGI-I score, responder rates based on the PANSS total score, and the Calgary Depression Scale for Schizophrenia (CDSS). […]
Subjects who completed this study had the option to continue in the long-term. […] Risperidone-treated subjects were titrated from 2 mg to 6 mg daily over a three-day period and were subsequently maintained at 6 mg/day for the remainder of the treatment period. […] Blood samples were also obtained at Screening/Baseline, Week 3, and Week 6 for clinical laboratory assessments.

[3] = Body weight, Clinical Study Three
Source text: To assess the safety and tolerability of bifeprunox using physical examination, weight, waist circumference, vital signs (pulse rate and systolic/diastolic blood pressure [BP], and oral temperature), 12-lead electrocardiogram (ECG), clinical laboratory assessments (hematology, biochemistry including fasting insulin level, fasting glucose, fasting lipid profile, urinalysis, special laboratory assessments for prolactin, IGF-1, IGFBP-3, and thyroid function), need for anticholinergic treatment during double-blind treatment period, concomitant medication use, adverse event (AE) monitoring, and assessments of abnormal movement including the Simpson-Angus Scale (SAS), Barnes Akathisia Scale (BAS), and Abnormal Involuntary Movement Scale (AIMS).

[4] = Bifeprunox 10 mg, Endpoint LOCF
[5] = Bifeprunox 20 mg, Endpoint LOCF
[6] = Bifeprunox 30 mg, Week 6/Endpoint
[7] = Bifeprunox 40 mg, Week 6/Endpoint

O=c1[nH]c2cccc(N3CCN(Cc4cccc(-c5ccccc5)c4)CC3)c2o1 [Bifeprunox, 7-[4-([1,1′-biphenyl]-3-ylmethyl)-1-piperazinyl]-2(3H)-benzoxazolone]
Change from Baseline in CGI Severity of Illness Score, Mean (S.D.) [1, 4]: −0.18 (1.04) | Change from Baseline in CGI Severity of Illness Score, Median [1, 4]: 0.0 | Change from Baseline in CGI Severity of Illness Score, Trt Effect (bifeprunox—placebo) [1, 4]: 0.12 | Change from Baseline in CGI Severity of Illness Score, Mean (S.D.) ([1]; Bifeprunox 10 mg, Week 1, LOCF): 0.13 (0.75) | Change from Baseline in CGI Severity of Illness Score, Median ([1]; Bifeprunox 10 mg, Week 1, LOCF): 0.0 | Change from Baseline in CGI Severity of Illness Score, Mean (S.D.) ([1]; Bifeprunox 10 mg, Week 2, LOCF): −2.3 (0.92) | Change from Baseline in CGI Severity of Illness Score, Median ([1]; Bifeprunox 10 mg, Week 2, LOCF): 0.0 | Change from Baseline in CGI Severity of Illness Score, Mean (S.D.) ([1]; Bifeprunox 10 mg, Week 3, LOCF): −0.22 (1.01) | Change from Baseline in CGI Severity of Illness Score, Median ([1]; Bifeprunox 10 mg, Week 3, LOCF): 0.0 | Change from Baseline in CGI Severity of Illness Score, Mean (S.D.) ([1]; Bifeprunox 10 mg, Week 4, LOCF): −0.16 (0.99) | Change from Baseline in CGI Severity of Illness Score, Median ([1]; Bifeprunox 10 mg, Week 4, LOCF): 0.0 | Change from Baseline in CGI Severity of Illness Score, Mean (S.D.) [1, 5]: −0.52 (0.96) | Change from Baseline in CGI Severity of Illness Score, Median [1, 5]: 0.0 | Change from Baseline in CGI Severity of Illness Score, Trt Effect (bifeprunox—placebo) [1, 5]: −0.19 | Change from Baseline in CGI Severity of Illness Score, Mean (S.D.) ([1]; Bifeprunox 20 mg, Week 1, LOCF): −0.31 (0.74) | Change from Baseline in CGI Severity of Illness Score, Median ([1]; Bifeprunox 20 mg, Week 1, LOCF): 0.0 | Change from Baseline in CGI Severity of Illness Score, Mean (S.D.) ([1]; Bifeprunox 20 mg, Week 2, LOCF): −0.50 (0.85) | Change from Baseline in CGI Severity of Illness Score, Median ([1]; Bifeprunox 20 mg, Week 2, LOCF): 0.0 | Change from Baseline in CGI Severity of Illness Score, Mean (S.D.) ([1]; Bifeprunox 20 mg, Week 3, LOCF): −0.57 (0.90) | Change from Baseline in CGI Severity of Illness Score, Median ([1]; Bifeprunox 20 mg, Week 3, LOCF): 0.0 | Change from Baseline in CGI Severity of Illness Score, Mean (S.D.) ([1]; Bifeprunox 20 mg, Week 4, LOCF): −0.57 (0.89) | Change from Baseline in CGI Severity of Illness Score, Median ([1]; Bifeprunox 20 mg, Week 4, LOCF): 0.0 | CGI severity of illness score, treatment effect (bifeprunox—placebo) ([1]; bifeprunox 20 mg, Endpoint LOCF): −0.19 | Change from Baseline in CGI Severity of Illness Score, Mean (SD) ([2]; Bifeprunox 30 mg, Week 1): −0.33 (0.77) | Change from Baseline in CGI Severity of Illness Score, Median ([2]; Bifeprunox 30 mg, Week 1): 0.0 | Change from Baseline in CGI Severity of Illness Score, Mean (SD) ([2]; Bifeprunox 30 mg, Week 2): −0.58 (0.97) | Change from Baseline in CGI Severity of Illness Score, Median ([2]; Bifeprunox 30 mg, Week 2): 0.0 | Change from Baseline in CGI Severity of Illness Score, Mean (SD) ([2]; Bifeprunox 30 mg, Week 3): −0.67 (1.08) | Change from Baseline in CGI Severity of Illness Score, Median ([2]; Bifeprunox 30 mg, Week 3): 0.0 | Change from Baseline in CGI Severity of Illness Score, Mean (SD) ([2]; Bifeprunox 30 mg, Week 4): −0.68 (1.11) | Change from Baseline in CGI Severity of Illness Score, Median ([2]; Bifeprunox 30 mg, Week 4): 0.0 | Change from Baseline in CGI Severity of Illness Score, Mean (SD) [2, 6]: −0.69 (1.19) | Change from Baseline in CGI Severity of Illness Score, Median [2, 6]: 0.0 | Change from Baseline in CGI Severity of Illness Score, Trt Effect (bifeprunox—placebo) [2, 6]: −0.28 | Change from Baseline in CGI Severity of Illness Score, Mean (SD) ([2]; Bifeprunox 40 mg, Week 1): −0.28 (0.65) | Change from Baseline in CGI Severity of Illness Score, Median ([2]; Bifeprunox 40 mg, Week 1): 0.0 | Change from Baseline in CGI Severity of Illness Score, Mean (SD) ([2]; Bifeprunox 40 mg, Week 2): −0.43 (0.90) | Change from Baseline in CGI Severity of Illness Score, Median ([2]; Bifeprunox 40 mg, Week 2): 0.0 | Change from Baseline in CGI Severity of Illness Score, Mean (SD) ([2]; Bifeprunox 40 mg, Week 3): −0.54 (1.02) | Change from Baseline in CGI Severity of Illness Score, Median ([2]; Bifeprunox 40 mg, Week 3): 0.0 | Change from Baseline in CGI Severity of Illness Score, Mean (SD) ([2]; Bifeprunox 40 mg, Week 4): −0.51 (1.08) | Change from Baseline in CGI Severity of Illness Score, Median ([2]; Bifeprunox 40 mg, Week 4): 0.0 | Change from Baseline in CGI Severity of Illness Score, Mean (SD) [2, 7]: −0.54 (1.12) | Change from Baseline in CGI Severity of Illness Score, Median [2, 7]: 0.0 | Change from Baseline in CGI Severity of Illness Score, Trt Effect (bifeprunox—placebo) [2, 7]: −0.18 | CGI severity of illness score, treatment effect (bifeprunox—placebo) ([2]; bifeprunox 30 mg): −0.28 | mean change (SD) from Baseline to Endpoint in CGI severity of illness score ([2]; bifeprunox 30 mg): −0.69 (1.19) | CGI severity of illness score, treatment effect (bifeprunox—placebo) ([2]; bifeprunox 40 mg): −0.18 | mean change (SD) from Baseline to Endpoint in CGI severity of illness score ([2]; bifeprunox 40 mg): −0.54 (1.12) | Weight, Baseline Mean of subjects with Endpoint change ([3]; Bifeprunox 30 mg): 179.7 lbs | Weight, Baseline Mean of subjects with Week 6 change ([3]; Bifeprunox 30 mg): 172.6 lbs | Weight, Baseline, Max ([3]; Bifeprunox 30 mg): 358 lbs | Weight, Baseline, Mean (SD) ([3]; Bifeprunox 30 mg): 179.1 (62.4) lbs | Weight, Baseline, Median ([3]; Bifeprunox 30 mg): 171 lbs | Weight, Baseline, Min ([3]; Bifeprunox 30 mg): 77 lbs | Weight, Change from Baseline at Endpoint, Max ([3]; Bifeprunox 30 mg): 39 lbs | Weight, Change from Baseline at Endpoint, Mean (SD) ([3]; Bifeprunox 30 mg): −1.1 (7.4) lbs | Weight, Change from Baseline at Endpoint, Median ([3]; Bifeprunox 30 mg): 0 lbs | Weight, Change from Baseline at Endpoint, Min ([3]; Bifeprunox 30 mg): −22 lbs | Weight, Change from Baseline at Week 6, Max ([3]; Bifeprunox 30 mg): 39 lbs | Weight, Change from Baseline at Week 6, Mean (SD) ([3]; Bifeprunox 30 mg): −1.0 (8.9) lbs | Weight, Change from Baseline at Week 6, Median ([3]; Bifeprunox 30 mg): −2 lbs | Weight, Change from Baseline at Week 6, Min ([3]; Bifeprunox 30 mg): −18 lbs | incidence of markedly abnormal (≧7%) decrease in body weight ([3]; Bifeprunox 30 mg): 5% | incidence of markedly abnormal (≧7%) increase in body weight ([3]; Bifeprunox 30 mg): 5% | mean weight change at Endpoint ([3]; Bifeprunox 30 mg): −1.1 lbs | Weight, Baseline Mean of subjects with Endpoint change ([3]; bifeprunox 20 mg): 178.8 lbs | Weight, Baseline Mean of subjects with Week 6 change ([3]; bifeprunox 20 mg): 171.9 lbs | Weight, Baseline, Max ([3]; bifeprunox 20 mg): 393 lbs | Weight, Baseline, Mean (SD) ([3]; bifeprunox 20 mg): 180.6 (61.7) lbs | Weight, Baseline, Median ([3]; bifeprunox 20 mg): 176 lbs | Weight, Baseline, Min ([3]; bifeprunox 20 mg): 77 lbs | Weight, Change from Baseline at Endpoint, Max ([3]; bifeprunox 20 mg): 26 lbs | Weight, Change from Baseline at Endpoint, Mean (SD) ([3]; bifeprunox 20 mg): −2.3 (7.3) lbs | Weight, Change from Baseline at Endpoint, Median ([3]; bifeprunox 20 mg): −1 lbs | Weight, Change from Baseline at Endpoint, Min ([3]; bifeprunox 20 mg): −34 lbs | Weight, Change from Baseline at Week 6, Max ([3]; bifeprunox 20 mg): 26 lbs | Weight, Change from Baseline at Week 6, Mean (SD) ([3]; bifeprunox 20 mg): −3.3 (8.2) lbs | Weight, Change from Baseline at Week 6, Median ([3]; bifeprunox 20 mg): −1 lbs | Weight, Change from Baseline at Week 6, Min ([3]; bifeprunox 20 mg): −34 lbs | incidence of markedly abnormal (≧7%) decrease in body weight ([3]; bifeprunox 20 mg): 6% | incidence of markedly abnormal (≧7%) increase in body weight ([3]; bifeprunox 20 mg): 1% | mean weight change at Endpoint ([3]; bifeprunox 20 mg): −2.3 lbs | mean body weight (in words) ([3]; bifeprunox 20, 30 mg, 6 weeks): Small decreases in mean body weight
